In publication PMC7862523 (Clinical Pharmacokinetics, 2020):

Legend:
[1] = Association between model-derived AUC and pharmacodynamic biomarkers; format: in vivo, human
[2] = Population pharmacokinetic model
[3] = final population PK model, combined dataset

- correlation between AUC and occurrence of lipodystrophy ([1]; any point during follow-up, W = 1687, p = 0.97): no apparent correlation
- CL higher in CYP3A5 expressors compared with non-expressors ([2]; combined dataset): 19%
- CL lower in female compared with male individuals ([2]; combined dataset): 21%
- σadditive (SD), residual variability ([2]; final model): 0.641
- σexponential (SD), residual variability ([2]; final model): 0.281
- SLCO3A1 G > T on V (covariate scale factor) ([2]; final model, rs8027174): 0.81
- ωCL (SD), inter-individual variability of CL [2, 3]: 0.22
- ωV (SD), inter-individual variability of V [2, 3]: 0.33
- ωka (SD), inter-individual variability of ka [2, 3]: 0.60
- ka (absorption rate constant), estimate ([2]; final population PK model, combined dataset, typical value): 0.68 h⁻¹
Structure (SMILES): CC(C)CN(C[C@@H](O)[C@H](Cc1ccccc1)NC(=O)O[C@H]1CO[C@H]2OCC[C@H]21)S(=O)(=O)c1ccc(N)cc1 [Darunavir]
- correlation between AUC and CD4 lymphocyte count ([1]; Spearman, p = 0.3): no apparent correlation
- correlation between AUC and occurrence of CNS adverse events ([1]; any point during follow-up, W = 1613.5, p = 0.42): no apparent correlation
- correlation between AUC and viral load ([1]; viral load > 40 or < 40 copies/mL, Wilcoxon W = 582, p = 0.45): no apparent correlation
